Test results from patent US20190185339A1, “Zirconium-Based Cluster as a Dentin Tubule Occlusion Agent” (Colgate-Palmolive Company, priority 2017, published 2019).

How the values were obtained:
[1] = pH of the zirconium oxychloride / arginine solutions; format: physicochemical
Experimental: (§1) Samples were prepared according to Table 1. Water was added to zirconium oxychloride (ZrOCl2.8H2O, MW 322.25) in a glass jar to yield a clear solution containing 1% zirconium oxychloride. Under stirring, L-arginine was slowly added to prevent clumping of arginine as well as large fluctuations in localized pH values. The solutions were incubated for 1 day at 50° C. Then the solutions were cooled to room temperature. Solid gel was formed in samples with the molar ratio of arginine to zirconium oxychloride of 2-4.
A 100 g batch was prepared according to Table 2. 1% w/w zirconium oxychloride (ZrOCl2.8H2O, MW 322.25) and arginine were mixed in aqueous solution with the molar ratio of arginine to zirconium oxychloride of 1:1.
(§2) The zirconium oxychloride cluster was prepared as described in Example 1. The prepared zirconium oxychloride cluster was purified by gel permeability chromatograph (GPC). GPC column was prepared using Bio-Rad P2 gel with 5 μm particle size. Approximately 10 mL of prepared solution was filtered (0.45 μm) and loaded on the column using a HPLC pump at 0.2 mL/min. The mobile phase of the GPC chromatography was deionized water. Elution fractions were collected in intervals and monitored using SEC-RI. […] The pH of the GPC fraction (1160-1300 min) was 4.5. […] 10 g of this fraction was freeze dried to obtain purified powder for subsequent PXRD analysis.

[2] = Stability in terms of gelation and flocculation (clear or gel); format: physicochemical; settings: 1% zirconium oxychloride with varied arginine; incubated 1 day at 50° C., cooled to room temperature
Experimental: In some embodiments, the zirconium oxychloride cluster of the invention is stable at pH 2-6, 3-5, 3-4, 3.5-4.5 or 4-4.5, in solution, e.g., in aqueous solution.
as §1, §2

[3] = solution of zirconium oxychloride which is effective as an antiperspirant; cited from earlier work

pH ([1]; 1% zirconium oxychloride with varied arginine, incubated 1 day at 50° C., cooled to room temperature): 1.39
pH value ([1]; zirconium oxychloride alone, general statement): < 2
appearance (clear / gel) [2]: clear
SMILES: [Cl-].[Cl-].[O]=[Zr+2] [Zr, zirconium oxychloride (ZrOCl2.8H2O, MW 322.25)]
pH of solution [3]: about 0.8
